Assay results published in patent US11633434B2, “Topical kits and compositions and use thereof” (priority 2017, dated 2023).
Starred links: 1 amine or outer side, 2 acyl side, 3 side chain; linkers in the order of their positions; H or OH if unused. Positions of bridges follow the written chain, without caps; N, C: chain ends. Non-standard residues stand in square brackets, D forms with d. Residues, ends and D or L forms follow the SMILES beside them. X1 = CC(C)CCCCCCCCC[C@H](CC(=O)[*:1])O[*:2]

Legend:
C. albicans [1] = settings: reported value; cited from earlier work
C. albicans [2] = assay: Antifungal activity of the formula, disk diffusion method; type: cell-based; settings: Candida albicans, 48 h, read-out: diameter inhibition zones
Experimental: The antifungal activity of the bacillus (10^8/ml) in the formula was determined using the disk diffusion method and was compared to that of empty formulation (without bacillus) and of ketoconazole 2% w/v in ethylene glycol (FIG. 11). A lawn of C. albicans (100 μl of 10^7 cells/ml) was spread on yeast extract-peptone-dextrose (YPD) agar petri dishes and tested solutions (10 μl ) were loaded on paper filter disks (6 mm in diameter) placed at the center of each dish and incubated at 37° C. for 48 h.

Row | SMILES | synergistic anti-fungal MIC (C. albicans [1]) | zone of inhibition at 2 % strength (C. albicans [2])
1 | CC(C)CCCCCCCCC[C@@H]1CC(=O)N[C@@H](CCC(=O)O)C(=O)N[C@@H](CC(C)C)C(=O)N[C@H](CC(C)C)C(=O)N[C@@H](C(C)C)C(=O)N[C@@H](CC(=O)O)C(=O)N[C@H](CC(C)C)C(=O)N[C@@H](CC(C)C)C(=O)O1 [Surfactin C15] (EL[dL]VD[dL]L; linker N-C via X1) | 6.25 µg/mL | 
2 | CC(=O)N1CCN(c2ccc(OCC3COC(Cn4ccnc4)(c4ccc(Cl)cc4Cl)O3)cc2)CC1 (centres unmarked) [ketoconazole] |  | 14 mm
